27 compounds from US11976075B2, “Inhibitors of the MYST family of lysine acetyl transferases” (Isosterix, Inc., priority 2022, dated 2024) can be followed below.

In the experiment the target is T1, Recombinant KAT6A/MOZ (488-778) protein (Homo sapiens, UniProt Q92794).
T1 construct: Recombinant KAT6A/MOZ (488-778) protein (Active motif, Catalog #81223); purchased Active Motif 81223
T1 sequence (Q92794 488-778): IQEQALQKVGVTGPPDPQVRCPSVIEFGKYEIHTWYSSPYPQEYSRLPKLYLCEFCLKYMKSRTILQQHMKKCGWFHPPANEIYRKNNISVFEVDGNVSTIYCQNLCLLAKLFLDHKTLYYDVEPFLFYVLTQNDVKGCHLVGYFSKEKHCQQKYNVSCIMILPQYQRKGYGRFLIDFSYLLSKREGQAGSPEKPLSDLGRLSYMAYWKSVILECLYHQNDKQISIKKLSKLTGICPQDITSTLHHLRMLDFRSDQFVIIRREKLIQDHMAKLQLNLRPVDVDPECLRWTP
The experiment is described as follows: Kat6a AlphaLISA Inhibition Screening Assay. It is filed as biochemical. The following applies: 60′ pre-incubation; Table 2; read-out: Kat6A biochemical assay: IC50. The method, then:
The Kat6a inhibitory activity of test compounds was determined using an Alpha Screen-based detection method. The assay reactions were conducted in a volume of 10 μL in Alpha Plate, White 384 well plate (cat #6008280, Perkin Elmer). The enzymatic reactions were performed in assay buffer pH 8.0 (50 mM Tris-HCl, 0.1 mM EDTA, 0.01% Tween-20, 1 mM Dithiothreitol, 0.1% BSA (fatty acid free) and 330 nM TSA (Trichostatin A)). 10 μL reaction volume consisting of 25 nM of Recombinant KAT6A/MOZ (488-778) protein (Active motif, Catalog #81223), 400 nM Acetyl coenzyme A (Catalog #A2056, Sigma), 200 nM of Histone H3 peptide [(amino acids 1-21), biotin-labeled (BPS Biosciences, Catalog #52011,)] and a 10-point dose response curve for test/tool compounds were prepared. Enzyme and compounds solution were pre-incubated in assay plate for 60 or 10 min at room temperature then substrate and Acetyl coenzyme A solution were added to the plate. After addition, the plate was sealed with adhesive seals and incubated for 120 minutes at room temperature.
After 120 minutes of incubation, 5 μL (10 μg/mL) of AlphaLISA anti-acetyl-Lysine acceptor beads (Perkin Elmer, Catalog #AL143C) were added to the plate and it was incubated for 60 minutes at room temperature. Then 10 μL (10 μg/mL) of Alpha Streptavidin donor beads (Perkin Elmer, Catalog #6760002S) were added to the plate which was further incubated for 60 minutes at room temperature. After incubation, the alpha signal was recorded by using Perkin Elmer Envision multi-mode reader.
NA means the compound was not active at the concentration tested. […] NT means not tested.
In general terms: Bead proximity is the source of the signal in Alpha formats.
`C=CC(=O)N1CCC(c2ccnc(-c3cc(C)cc(C(=O)NNS(=O)(=O)c4ccccc4F)c3)c2)CC1` [Synthetic Example 41, N-(3-(4-(1-acryloylpiperidin-4-yl)pyridin-2-yl)-5-methylbenzoyl)-2-fluorobenzenesulfonohydrazide]: the IC50 – broadly, the concentration that gives 50% inhibition – is at most 10 µM.
With `C=CS(=O)(=O)N1CCC(c2ccnc(-c3cc(C)cc(C(=O)NNS(=O)(=O)c4ccccc4F)c3)c2)CC1` [Synthetic Example 42, 2-fluoro-N′-(3-methyl-5-(4-(1-(vinylsulfonyl)piperidin-4-yl)pyridin-2-yl)benzoyl)benzenesulfonohydrazide] the figure was at most 10 µM.
With `C#CC(=O)N1C[C@H]2CN(Cc3cc(OC)c4c(NS(=O)(=O)c5ccccc5OC)noc4c3)C[C@H]2C1` [Synthetic Example 44, 2-methoxy-N-(4-methoxy-6-(((3aR,6aS)-5-propioloylhexahydropyrrolo[3,4-c]pyrrol-2(1H)-yl)methyl)benzo[d]isoxazol-3-yl)benzenesulfonamide], the concentration for half-maximal inhibition (IC50) was at most 10 µM.
With `C#CC(=O)N(C)Cc1cnn(Cc2cc(OC)c3c(NS(=O)(=O)c4ccccc4OC)noc3c2)c1` [Synthetic Example 45, N-((1-((4-methoxy-3-((2-methoxyphenyl)sulfonamido)benzo[d]isoxazol-6-yl)methyl)-1H-pyrazol-4-yl)methyl)-N-methylpropiolamide] the figure was at most 10 µM.
Take `C#CC(=O)NCc1cnn(Cc2cc(OC)c3c(NS(=O)(=O)c4ccc(C(=O)NC)cc4OC)noc3c2)c1` [Synthetic Example 46, 3-methoxy-4-(N-(4-methoxy-6-((4-(propiolamidomethyl)-1H-pyrazol-1-yl)methyl)benzo[d]isoxazol-3-yl)sulfamoyl)-N-methylbenzamide]: the concentration for half-maximal inhibition (IC50) was at most 10 µM.
Regarding `C=CC(=O)N(C)Cc1cnn(Cc2cc(OC)c3c(NS(=O)(=O)c4ccccc4OC)noc3c2)c1` [Synthetic Example 47, N-((1-((4-methoxy-3-((2-methoxyphenyl)sulfonamido)benzo[d]isoxazol-6-yl)methyl)-1H-pyrazol-4-yl)methyl)-N-methylacrylamide], the 50% inhibitory concentration (IC50) was at most 10 µM.
As for `C#CC(=O)NC1CCN(Cc2cc(OC)c3c(NS(=O)(=O)c4ccccc4OC)noc3c2)C1` (stereo not drawn) [Synthetic Example 48, N-(1-((4-methoxy-3-((2-methoxyphenyl)sulfonamido)benzo[d]isoxazol-6-yl)methyl)pyrrolidin-3-yl)propiolamide], the figure is at most 10 µM; as for `C=CC(=O)NC1CCN(Cc2cc(OC)c3c(NS(=O)(=O)c4ccccc4OC)noc3c2)CC1` [Synthetic Example 49, N-(1-((4-methoxy-3-((2-methoxyphenyl)sulfonamido)benzo[d]isoxazol-6-yl)methyl)piperidin-4-yl)acrylamide], at most 10 µM; as for `C=CC(=O)N1C[C@H]2CN(Cc3cc(OC)c4c(NS(=O)(=O)c5ccccc5OC)noc4c3)C[C@H]2C1` [Synthetic Example 50, N-(6-(((3aR,6aS)-5-acryloylhexahydropyrrolo[3,4-c]pyrrol-2(1H)-yl)methyl)-4-methoxybenzo[d]isoxazol-3-yl)-2-methoxybenzenesulfonamide], at most 10 µM.
In the case of `C=CC(=O)NCc1cnn(Cc2cc(OC)c3c(NS(=O)(=O)c4ccccc4OC)noc3c2)c1` [Synthetic Example 51, N-((1-((4-methoxy-3-((2-methoxyphenyl)sulfonamido)benzo[d]isoxazol-6-yl)methyl)-1H-pyrazol-4-yl)methyl)acrylamide], the IC50 was at most 10 µM.
As for `C#CC(=O)NCc1cnn(Cc2cc(OC)c3c(NS(=O)(=O)c4cccc(C(=O)NC)c4)noc3c2)c1` [Synthetic Example 52, 3-(N-(4-methoxy-6-((4-(propiolamidomethyl)-1H-pyrazol-1-yl)methyl)benzo[d]isoxazol-3-yl)sulfonyl)-N-methylbenzamide], the figure is at most 10 µM; as for `COc1ccccc1S(=O)(=O)Nc1noc2cc(Cn3cc(CNC(=O)C#CCO)cn3)cc(OC)c12` [Synthetic Example 53, 4-hydroxy-N-((1-((4-methoxy-3-((2-methoxyphenyl)sulfonamido)benzo[d]isoxazol-6-yl)methyl)-1H-pyrazol-4-yl)methyl) but-2-ynamide], at most 10 µM.
With `COC/C=C/C(=O)NCc1cnn(Cc2cc(OC)c3c(NS(=O)(=O)c4ccccc4OC)noc3c2)c1` [Synthetic Example 54, (E)-4-methoxy-N-((1-((4-methoxy-3-((2-methoxyphenyl)sulfonamido)benzo[d]isoxazol-6-yl)methyl)-1H-pyrazol-4-yl)methyl)but-2-enamide] the figure was at most 10 µM; with `C#CC(=O)NCc1ccnc(-c2cc(C)cc(C(=O)NNS(=O)(=O)c3cccc(C(=O)NC)c3)c2)c1` [Synthetic Example 55, N-methyl-3-[[[3-methyl-5-[4-[(prop-2-ynoylamino)methyl]-2-pyridyl]benzoyl]amino]sulfamoyl] benzamide], at most 10 µM.
As for `C=CC(=O)N1CCN(c2cccc(-c3cc(OC)c4c(NS(=O)(=O)c5c(OC)cccc5OC)noc4c3)c2)CC1` [Synthetic Example 56, N-(6-(3-(4-acryloylpiperazin-1-yl)phenyl)-4-methoxybenzo[d]isoxazol-3-yl)-2,6-dimethoxybenzenesulfonamide], the figure is at most 10 µM.
For `CC#CC(=O)NCc1cnn(Cc2cc(OC)c3c(NS(=O)(=O)c4ccccc4OC)noc3c2)c1` [Synthetic Example 57, N-[[1-[[4-methoxy-3-[(2-methoxyphenyl)sulfonylamino]-1,2-benzoxazol-6-yl]methyl]pyrazol-4-yl]methyl] but-2-ynamide], the half-maximal inhibitory concentration (IC50) is at most 10 µM.
Take `C=CC(=O)N1CCN(c2ccccc2-c2cc(OC)c3c(NS(=O)(=O)c4c(OC)cccc4OC)noc3c2)CC1` [Synthetic Example 58, N-(6-(2-(4-acryloylpiperazin-1-yl)phenyl)-4-methoxybenzo[d]isoxazol-3-yl)-2,6-dimethoxybenzenesulfonamide]: the IC50 is at most 10 µM.
As for `C=CS(=O)(=O)N1C[C@H]2CN(Cc3cc(OC)c4c(NS(=O)(=O)c5ccccc5OC)noc4c3)C[C@H]2C1` [Synthetic Example 59], the figure is at most 10 µM.
Take `C#CC(=O)NCC(=O)NCc1cnn(Cc2cc(OC)c3c(NS(=O)(=O)c4ccccc4OC)noc3c2)c1` [Synthetic Example 60, N-(2-(((1-((4-methoxy-3-((2-methoxyphenyl)sulfonamido)benzo[d]isoxazol-6-yl)methyl)-1H-pyrazol-4-yl)methyl)amino)-2-oxoethyl)propiolamide]: the half-maximal inhibitory concentration (IC50) is at most 10 µM.
As for `C=CC(=O)NCC(=O)NCc1cnn(Cc2cc(OC)c3c(NS(=O)(=O)c4ccccc4OC)noc3c2)c1` [Synthetic Example 61, N-[2-[[1-[[4-methoxy-3-[(2-methoxyphenyl)sulfonylamino]-1,2-benzoxazol-6-yl]methyl]pyrazol-4-yl]methylamino]-2-oxo-ethyl]prop-2-enamide], the figure is at most 10 µM; as for `COc1ccccc1S(=O)(=O)Nc1noc2cc(Cn3cc(C(=O)NCC#N)cn3)cc(OC)c12` [Synthetic Example 62, N-(cyanomethyl)-1-((4-methoxy-3-((2-methoxyphenyl)sulfonamido)benzo[d]isoxazol-6-yl)methyl)-1H-pyrazole-4-carboxamide], at most 10 µM; as for `COc1ccccc1S(=O)(=O)Nc1noc2cc(CN3CCC(C(=O)NCC#N)CC3)cc(OC)c12` [Synthetic Example 63, N-(cyanomethyl)-1-((4-methoxy-3-((2-methoxyphenyl)sulfonamido)benzo[d]isoxazol-6-yl)methyl)piperidine-4-carboxamide], above 10 µM.
With `C#CC(=O)NC1CCN(Cc2cc(OC)c3c(NS(=O)(=O)c4ccccc4OC)noc3c2)CC1` [Synthetic Example 64] the figure was at most 10 µM; with `C#CC(=O)NCc1cnn(Cc2cc(OC)c3c(NS(=O)(=O)c4ccc(C(=O)O)cc4OC)noc3c2)c1` [Synthetic Example 65, 3-methoxy-4-(N-(4-methoxy-6-((4-(propiolamidomethyl)-1H-pyrazol-1-yl)methyl)benzo[d]isoxazol-3-yl)sulfamoyl)benzoic acid], at most 10 µM; with `C#CC(=O)NCc1cnn(Cc2cc(OC)n3c(NS(=O)(=O)c4ccccc4OC)nnc3c2)c1` [Synthetic Example 66, N-((1-((5-methoxy-3-((2-methoxyphenyl)sulfonamido)-[1,2,4]triazolo[4,3-a]pyridin-7-yl)methyl)-1H-pyrazol-4-yl)methyl)propiolamide], at most 10 µM.
Turning to `COc1ccccc1S(=O)(=O)Nc1noc2cc(CN3CCC(C(=O)NCC#N)C3)cc(OC)c12` (stereo not drawn) [Synthetic Example 67, N-(cyanomethyl)-1-((4-methoxy-3-((2-methoxyphenyl)sulfonamido)benzo[d]isoxazol-6-yl)methyl) pyrrolidine-3-carboxamide], the IC50 is above 10 µM.
Consider `C#CC(=O)NCc1cnn(Cc2cc(OC)c3c(NS(=O)(=O)CC4CCCCC4)noc3c2)c1` [compound 5], for which the half-maximal inhibitory concentration (IC50) was at most 10 µM.
